These results are taken from patent US8470785B2, “Method for treating ocular cancer” (St. Jude Children's Research Hospital, priority 2006, dated 2013).

Read-outs that look alike come from different tables or passages of the source. Ends that are not written are not given here.

In one data set the test system is retinoblastoma cells. Particulars: for p53 response: topotecan at LC50 for 1 hour, nutlin-3 treatment.
The conditions of data set [1]: cited from earlier work.
The target of the next data set is HDM2 (Homo sapiens, UniProt Q00987). To be noted: literature; cited from earlier work.
Sequence of HDM2 (Q00987 whole entry, the tested form may be a part): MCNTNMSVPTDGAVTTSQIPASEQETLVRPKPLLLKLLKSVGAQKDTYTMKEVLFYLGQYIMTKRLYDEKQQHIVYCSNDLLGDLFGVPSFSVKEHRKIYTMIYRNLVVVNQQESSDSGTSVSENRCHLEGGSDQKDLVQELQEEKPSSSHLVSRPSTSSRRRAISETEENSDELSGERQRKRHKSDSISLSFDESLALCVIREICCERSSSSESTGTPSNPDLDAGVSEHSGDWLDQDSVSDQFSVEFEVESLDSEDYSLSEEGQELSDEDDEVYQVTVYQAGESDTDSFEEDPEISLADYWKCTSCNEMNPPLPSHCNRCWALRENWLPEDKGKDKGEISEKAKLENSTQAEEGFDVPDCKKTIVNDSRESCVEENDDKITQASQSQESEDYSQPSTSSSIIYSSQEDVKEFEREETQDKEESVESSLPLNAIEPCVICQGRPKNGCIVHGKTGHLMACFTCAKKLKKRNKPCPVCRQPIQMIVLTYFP
Data set [2] has as its target MDM2 (amino acid residues 1-188) (Homo sapiens, UniProt Q00987). Description: Fluorescence polarization p53 peptide binding/competition assay, MDM2. A general note: Polarisation of emitted light reports the rotation of a fluorescent probe.
Data set [3] addresses T1, MDMX (amino acid residues 1-185) (Homo sapiens, UniProt O15151).
T1 sequence (O15151 1-185): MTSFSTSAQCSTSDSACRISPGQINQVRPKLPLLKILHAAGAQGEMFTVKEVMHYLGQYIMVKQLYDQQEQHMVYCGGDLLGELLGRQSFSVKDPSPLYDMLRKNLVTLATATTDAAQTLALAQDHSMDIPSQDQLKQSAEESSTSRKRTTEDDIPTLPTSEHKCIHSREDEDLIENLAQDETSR
Description: Fluorescence polarization p53 peptide binding/competition assay, MDMX.

For another data set, the system named is MDM2, p53 and p21 levels. Description: Immunoblot analysis of p53 pathway induction. Particulars: 4 μM nutlin-3; Weril, Y79, primary retinoblasts; all cells except 911 cells. For orientation: In western blotting, separated proteins are transferred to a membrane and probed.
In a further data set the test system is Mdm2^Lox/Lox MEFs. Description: Clonal analysis in Mdm2-deficient MEFs (Table 8).
In the next data set the test system is Y79 cells. Description: Retinoblastoma cell viability, Y79 cells. It is filed as cell-based, human. To be noted: 72 hours, total racemic drug; read-out: LC50 (the source's name). The source says: These studies were extended to retinoblastoma cells. […] MDM2, p53 and p21 levels were induced in all cells except for the 911 cells in which p53 was inactivated by the large E1B protein.

The test system of data set [4] is p53^LSL MEFs null for Mdm2 and/or MdmX. Description: MTT growth/viability assay in p53^LSL MEFs.
The next data set relates to Weril and Y79 cells. Particulars: lentivirus control-infected cells.
For data set [5], the system named is SJRBL8 retinoblastoma cell line. Description: Retinoblastoma cell viability, p53-deficient SJRBL8 cells. Particulars: 10 μM to 1 nM, 72 hours.

Sequence of MDM2 (amino acid residues 1-188) (Q00987 1-188): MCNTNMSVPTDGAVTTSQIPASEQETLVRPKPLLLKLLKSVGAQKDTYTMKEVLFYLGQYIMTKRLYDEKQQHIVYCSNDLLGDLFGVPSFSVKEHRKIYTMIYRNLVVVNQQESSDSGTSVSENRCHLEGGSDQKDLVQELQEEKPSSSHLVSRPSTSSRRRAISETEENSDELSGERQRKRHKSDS

As to `CC[C@@]1(O)C(=O)OCc2c1cc1n(c2=O)Cc2cc3c(CN(C)C)c(O)ccc3nc2-1` [topotecan, Topotecan], in the data set on retinoblastoma cells, the p53 response entry is recorded as “induced a p53 response”. The intraocular penetration result in data set [1] (systemic administration, murine models of retinoblastoma) is listed as “good intraocular penetration”.
Regarding `O=C(O)COc1ccc(C(=O)C=Cc2ccc(Cl)c(Cl)c2)cc1` [Trial B-1, {4-[3-(3,4-dichloro-phenyl)-acryloyl]-phenoxy}-acetic acid], the “affinity / inhibition of p53/HDM2 complex” value on HDM2 is “high micromolar affinity”.
Turning to chlorofusin, the “affinity / inhibition of p53/HDM2 complex” value at HDM2 is “micromolar inhibitor”.
“NH2-Gly-Ser-Gly-Ser-Ser-Gln-Glu-Thr-Ala-Ser-Asp-Leu-Ala-Lys-Leu-Ala-Pro-Glu-Asn-OH (H-GSGSSQETASDLAKLAPEN-OH) [p53 mutant]”: the MDM2 binding result in data set [2] is reported as “no MDM2 or MDMX binding”. Moreover, in data set [3], the MDMX binding entry is “no MDM2 or MDMX binding”.
In the case of FMDYWEGL [SEQ ID NO:4], the “affinity / inhibition of p53/HDM2 complex” value with HDM2 is recorded as “micromolar affinity”.
Regarding `COc1ccc(C2=N[C@@H](c3ccc(Cl)cc3)[C@@H](c3ccc(Cl)cc3)N2C(=O)N2CCNC(=O)C2)c(OC(C)C)c1` [nutlin-3a], in data set [1] (oral and intravenous formulations), the “penetration into the vitreous” value is “poor penetration into the vitreous”.
As for `COc1ccc(C2=N[C@@H](c3ccc(Cl)cc3)[C@@H](c3ccc(Cl)cc3)N2C(=O)N2CCNC(=O)C2)c(OC(C)C)c1` [nutlin-3], in the data set on MDM2, p53 and p21 levels, the “MDM2, p53 and p21 levels” value is “induced”. The “response to nutlin-3 with MDMX cDNA” value with Weril cells (Weril cells, MDMX cDNA) was “more resistant”. Besides, in the data set with Weril cells (Weril cells, MDMX siRNA), the “response to nutlin-3 with MDMX siRNA” value is given as “sensitized”. Further, the CC50 with Weril cells (read-out: LC50 (50% lethal concentration), 72 hours, total racemic drug) stood at 0.7 µM; in the data set on Weril cells (read-out: LC50, Weril cells transfected with control siRNA), 0.6 µM; with Weril cells (read-out: LC50, Weril cells transfected with p53 siRNA), 10 µM; in the data set with Y79 cells, 2 µM. Further, the “MdmX rescue of the loss of Mdm2 in MEFs” value with Mdm2^Lox/Lox MEFs (1.25 μM or 5 μM racemic nutlin-3) is reported as “blocked”. In addition, the “number of cells per clone” value is given as 1.0 ± 0^ in the data set on Mdm2^Lox/Lox MEFs (GFP virus, 1.25 μM racemic nutlin-3, Day 2); 1.5 ± 0.4 in the data set on Mdm2^Lox/Lox MEFs (GFP virus, 1.25 μM racemic nutlin-3, Day 3); 2.1 ± 0.7 in the data set with Mdm2^Lox/Lox MEFs (GFP virus, 1.25 μM racemic nutlin-3, Day 4); 1.1 ± 0.2 in the data set with Mdm2^Lox/Lox MEFs (GFP virus, 5.0 μM racemic nutlin-3, Day 2); 1.5 ± 0.4 in the data set on Mdm2^Lox/Lox MEFs (GFP virus, 5.0 μM racemic nutlin-3, Day 3); 3.1 ± 1.5 with Mdm2^Lox/Lox MEFs (Mdm2-GFP virus, 1.25 μM racemic nutlin-3, Day 2). Further, the “number of cells per clone” value in the data set on Mdm2^Lox/Lox MEFs (Mdm2-GFP virus, 1.25 μM racemic nutlin-3, Day 3) came out at 6.6 ± 5.2; in the data set with Mdm2^Lox/Lox MEFs (Mdm2-GFP virus, 1.25 μM racemic nutlin-3, Day 4), 10.0 ± 7.4; in the data set on Mdm2^Lox/Lox MEFs (Mdm2-GFP virus, 1.25 μM racemic nutlin-3, Day 5), 12.9 ± 8.1; in the data set with Mdm2^Lox/Lox MEFs (Mdm2-GFP virus, 1.25 μM racemic nutlin-3, Day 6), 14.5 ± 9.3; in the data set with Mdm2^Lox/Lox MEFs (Mdm2-GFP virus, 5.0 μM racemic nutlin-3, Day 2) it was 3.0 ± 2.2; with Mdm2^Lox/Lox MEFs (Mdm2-GFP virus, 5.0 μM racemic nutlin-3, Day 3), 3.3 ± 1.4. For the same compound, the “number of cells per clone” value with Mdm2^Lox/Lox MEFs (Mdm2-GFP virus, 5.0 μM racemic nutlin-3, Day 4) was determined as 3.9 ± 2.1; with Mdm2^Lox/Lox MEFs (Mdm2-GFP virus, 5.0 μM racemic nutlin-3, Day 5) it was 3.1 ± 1.7; with Mdm2^Lox/Lox MEFs (Mdm2-GFP virus, 5.0 μM racemic nutlin-3, Day 6), 2.8 ± 2.0; with Mdm2^Lox/Lox MEFs (MdmX-GFP virus, 1.25 μM racemic nutlin-3, Day 2) it was 1.1 ± 0.2; in the data set on Mdm2^Lox/Lox MEFs (MdmX-GFP virus, 1.25 μM racemic nutlin-3, Day 3), 1.9 ± 0.6; in the data set on Mdm2^Lox/Lox MEFs (MdmX-GFP virus, 1.25 μM racemic nutlin-3, Day 4), 2.8 ± 1.7. Moreover, the “number of cells per clone” value with Mdm2^Lox/Lox MEFs (MdmX-GFP virus, 1.25 μM racemic nutlin-3, Day 5) was 3.4 ± 2.2; in the data set on Mdm2^Lox/Lox MEFs (MdmX-GFP virus, 1.25 μM racemic nutlin-3, Day 6), 2.1 ± 1.9; in the data set on Mdm2^Lox/Lox MEFs (MdmX-GFP virus, 5.0 μM racemic nutlin-3, Day 2), 1.2 ± 0.4; in the data set on Mdm2^Lox/Lox MEFs (MdmX-GFP virus, 5.0 μM racemic nutlin-3, Day 3), 1.1 ± 0.1; in the data set with Mdm2^Lox/Lox MEFs (MdmX-GFP virus, 5.0 μM racemic nutlin-3, Day 4), 1.3 ± 0.2; in the data set with Mdm2^Lox/Lox MEFs (MdmX-GFP virus, 5.0 μM racemic nutlin-3, Day 5), 1.0 ± 0^. Besides, the “sensitivity of MEFs to nutlin-3” value in data set [4] (MdmX^+/− MEFs after Cre) is “sensitive”; in data set [4] (MdmX^−/− MEFs after Cre), “insensitive”. Further, the “effect of nutlin-3 alone” value in the data set on retinoblastoma cells (10 nM) was “ineffective alone”. In the data set with retinoblastoma cells, the p53 response entry is reported as “induced a p53 response”. Moreover, the “proliferation of control-infected cells” value with Weril and Y79 cells was “inhibited the proliferation”. Also, in [5], the viability entry is “no decrease in viability at any concentration tested”.
Consider MPRFMDYWEGLN [SEQ ID NO:2], for which, in the data set with HDM2, the “affinity / inhibition of p53/HDM2 complex” value is recorded as “sub-micromolar affinity” and the “fold increase in potency compared to wild-type p53-derived peptide (SEQ ID NO:3)” value is 28 fold.
